How the values were obtained:
[1] = Plasma pharmacokinetics, LC-MS/MS, non-compartmental analysis; format: in vivo, human; settings: for AUC(0-inf) / clearance / Cmax / half-life / Tmax / Vd: human, plasma, intravenous; for AUC(0-inf): Mean AUC0-∞ ± SD; for clearance: Mean CL ± SD; for Cmax: Mean Cmax ± SD; for half-life: Mean T1/2 ± SD; for Vd: Mean Vz ± SD
relapsed myeloma = assay: Clinical response by International Myeloma Working Group criteria; format: in vivo, human; settings: 15 patients, all dose levels
[2] = in vivo
[3] = in human serum; cited from earlier work
[4] = dose level 30 + 30 mg/m^2, cycle 1 days 1 and 22 combined
[5] = dose level 30+50 mg/m^2, cycle 1 days 1 and 22 combined
[6] = dose level 50+50 mg/m^2, cycle 1 days 1 and 22 combined

- AUC(0-inf) [1, 4]: 7.78 ± 2.75 µM·h
- AUC(0-inf) [1, 5]: 4.75 ± 1.06 µM·h
- AUC(0-inf) [1, 6]: 14.2 ± 5.34 µM·h
- clearance [1, 4]: 666 mL/min
- clearance [1, 5]: 1280 mL/min
- clearance [1, 6]: 643 mL/min
- Cmax [1, 4]: 1850 ± 800 nM
- Cmax [1, 5]: 1090 ± 430 nM
- Cmax [1, 6]: 2410 ± 740 nM
- half-life [1, 4]: 6.87 ± 3.24 h
- half-life [1, 5]: 3.65 ± 1.75 h
- half-life [1, 6]: 5.35 ± 2.83 h
- Tmax ([1]; Mean Tmax ± SD, dose level 30 + 30 mg/m^2, cycle 1 days 1 and 22 combined): 0.52 ± 0.03 h
- Tmax ([1]; Mean Tmax ± SD, dose level 30+50 mg/m^2, cycle 1 days 1 and 22 combined): 1.18 ± 1.22 h
- Tmax ([1]; Mean Tmax ± SD, dose level 50+50 mg/m^2, cycle 1 days 1 and 22 combined): 1.4 ± 1.67 h
- Vd [1, 4]: 368 ± 210 L
- Vd [1, 5]: 417 ± 242 L
- Vd [1, 6]: 317 ± 255 L
- Tmax ([1]; Tmax, outlier, 30/50 mg/m^2 dose level group, single profile): 3 h
- Average difference in AUC(0-∞), day 22 versus day 1 ([1]; patients with PK data on both days (n=6), 95% CI −2.78 to 4.78, P=0.53): 1.00 µM·h
SMILES: CN1CC[C@H](c2c(O)cc(O)c3c(=O)cc(-c4ccccc4Cl)oc23)[C@H](O)C1 [Flavopiridol]
- Confirmed partial responses (relapsed myeloma): no confirmed partial responses
- Patients with progressive disease after the first cycle (relapsed myeloma): 4 patients
- Dehydration, patients with toxicity ([2]; human): 2 n
- Diaphoresis, patients with toxicity ([2]; human): 1 n
- Dizziness, patients with toxicity ([2]; human): 1 n
- Hyperglycemia, patients with toxicity ([2]; human): 4 n
- Hyperkalemia, patients with toxicity ([2]; human): 2 n
- Hypocalcemia, patients with toxicity ([2]; human): 3 n
- Lymphopenia, patients with toxicity ([2]; human): 5 n
- Nausea, patients with toxicity ([2]; human): 3 n
- Vomiting, patients with toxicity ([2]; human): 1 n
- Serious adverse events, number [2]: eight
- Protein binding [3]: highly protein bound
